Assay results as given in ChEMBL document CHEMBL1201862, “PubChem BioAssay data set” (2004).
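Method: 48-hour compound exposure of cells in 96-well plates, five concentrations, linear interpolation of endpoints. GI50 marks 50% less growth.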 The source made the active and inactive calls. No stated cut-off is given here; in the data, active = GI50 up to about 1.1 µM and inactive = higher.

Key:
Assay in all cases: NCI tumour cell line growth inhibition, 48 h
[1] = tested on: 786-0
[2] = tested on: A498
[3] = tested on: A549
[4] = tested on: ACHN
[5] = tested on: BT-549
[6] = tested on: CAKI-1
[7] = tested on: CCRF-CEM
[8] = tested on: COLO 205
[9] = tested on: DU-145
[10] = tested on: EKVX
[11] = tested on: HCC 2998
[12] = tested on: HCT-116
[13] = tested on: HCT-15
[14] = tested on: HL-60
[15] = tested on: HOP-62
[16] = tested on: HOP-92
[17] = tested on: HT-29
[18] = tested on: Hs-578T
[19] = tested on: IGROV-1
[20] = tested on: K562
[21] = tested on: KM12
[22] = tested on: LOX IMVI
[23] = tested on: MCF7
[24] = tested on: MDA-MB-231
[25] = tested on: MDA-MB-435
[26] = tested on: MDA-N
[27] = tested on: MOLT-4
[28] = tested on: Malme-3M
[29] = tested on: NCI-H226
[30] = tested on: NCI-H23
[31] = tested on: NCI-H460
[32] = tested on: NCI-H522
[33] = tested on: NCI/ADR-RES
[34] = tested on: OVCAR-3
[35] = tested on: OVCAR-4
[36] = tested on: OVCAR-5
[37] = tested on: OVCAR-8
[38] = tested on: PC-3
[39] = tested on: RPMI-8226
[40] = tested on: RXF 393
[41] = tested on: SF-268
[42] = tested on: SF-295
[43] = tested on: SF-539
[44] = tested on: SK-MEL-28
[45] = tested on: SK-MEL-5
[46] = tested on: SN12C
[47] = tested on: SNB-19
[48] = tested on: SNB-75
[49] = tested on: SR
[50] = tested on: SW-620
[51] = tested on: TK-10
[52] = tested on: U-251
[53] = tested on: UACC-257
[54] = tested on: UO-31
[55] = tested on: M14
[56] = tested on: SK-MEL-2
[57] = tested on: SK-OV-3
[58] = tested on: UACC-62
[59] = tested on: T47D

Cn1c(=O)c(-c2ccccc2)c(O)c2ccccc21
GI50 [1]: > 100 µM (inactive)
GI50 [2]: > 100 µM (inactive)
GI50 [3]: > 100 µM (inactive)
GI50 [4]: > 100 µM (inactive)
GI50 [5]: > 100 µM (inactive)
GI50 [6]: > 100 µM (inactive)
GI50 [7]: > 100 µM (inactive)
GI50 [8]: > 100 µM (inactive)
GI50 [9]: > 100 µM (inactive)
GI50 [10]: > 100 µM (inactive)
GI50 [11]: > 100 µM (inactive)
GI50 [12]: > 100 µM (inactive)
GI50 [13]: > 100 µM
GI50 [14]: > 100 µM (inactive)
GI50 [15]: > 100 µM (inactive)
GI50 [16]: > 100 µM (inactive)
GI50 [17]: > 100 µM (inactive)
GI50 [18]: 66.4 µM (inactive)
GI50 [19]: > 100 µM (inactive)
GI50 [20]: > 100 µM (inactive)
GI50 [21]: > 100 µM (inactive)
GI50 [22]: > 100 µM (inactive)
GI50 [23]: > 100 µM (inactive)
GI50 [24]: > 100 µM (inactive)
GI50 [25]: > 100 µM (inactive)
GI50 [26]: > 100 µM (inactive)
GI50 [27]: > 100 µM (inactive)
GI50 [28]: > 100 µM (inactive)
GI50 [29]: > 100 µM (inactive)
GI50 [30]: > 100 µM (inactive)
GI50 [31]: > 100 µM (inactive)
GI50 [32]: > 100 µM (inactive)
GI50 [33]: > 100 µM (inactive)
GI50 [34]: > 100 µM (inactive)
GI50 [35]: > 100 µM (inactive)
GI50 [36]: > 100 µM (inactive)
GI50 [37]: > 100 µM (inactive)
GI50 [38]: > 100 µM (inactive)
GI50 [39]: > 100 µM (inactive)
GI50 [40]: > 100 µM (inactive)
GI50 [41]: > 100 µM (inactive)
GI50 [42]: > 100 µM (inactive)
GI50 [43]: > 100 µM (inactive)
GI50 [44]: > 100 µM (inactive)
GI50 [45]: > 100 µM (inactive)
GI50 [46]: > 100 µM (inactive)
GI50 [47]: > 100 µM (inactive)
GI50 [48]: 0.92 µM (active)
GI50 [49]: 42.5 µM (inactive)
GI50 [50]: > 100 µM (inactive)
GI50 [51]: > 100 µM (inactive)
GI50 [52]: > 100 µM (inactive)
GI50 [53]: > 100 µM (inactive)
GI50 [54]: > 100 µM (inactive)

CC1CCC2c3c([nH]c4ccccc34)C3C(=O)N(C4CCCCC4)C(=O)C3C2C1 (configuration not stated)
GI50 [1]: 6.85 µM (inactive)
GI50 [2]: 22 µM (inactive)
GI50 [3]: 19.1 µM (inactive)
GI50 [4]: 13.5 µM (inactive)
GI50 [5]: 14.1 µM (inactive)
GI50 [6]: 14 µM (inactive)
GI50 [7]: 57.7 µM (inactive)
GI50 [8]: > 100 µM (inactive)
GI50 [9]: 30 µM (inactive)
GI50 [10]: 14.8 µM (inactive)
GI50 [11]: > 100 µM (inactive)
GI50 [12]: 11.9 µM (inactive)
GI50 [13]: 49.8 µM
GI50 [14]: > 100 µM (inactive)
GI50 [15]: 14.4 µM (inactive)
GI50 [16]: 21 µM (inactive)
GI50 [17]: > 100 µM (inactive)
GI50 [18]: 13 µM (inactive)
GI50 [19]: 17.2 µM (inactive)
GI50 [20]: 19 µM (inactive)
GI50 [22]: 52.5 µM (inactive)
GI50 [55]: 23.7 µM (inactive)
GI50 [23]: > 10 µM (inactive)
GI50 [24]: 11.8 µM (inactive)
GI50 [25]: 55.3 µM (inactive)
GI50 [26]: 33.3 µM (inactive)
GI50 [28]: 29.3 µM (inactive)
GI50 [29]: 16.5 µM (inactive)
GI50 [30]: 23.7 µM (inactive)
GI50 [31]: 26 µM (inactive)
GI50 [32]: > 100 µM (inactive)
GI50 [33]: 36.5 µM (inactive)
GI50 [34]: 19.9 µM (inactive)
GI50 [36]: 18.5 µM (inactive)
GI50 [37]: 15.4 µM (inactive)
GI50 [38]: 38.3 µM (inactive)
GI50 [39]: 38.2 µM (inactive)
GI50 [40]: 13.7 µM (inactive)
GI50 [41]: 13.6 µM (inactive)
GI50 [42]: 16.3 µM (inactive)
GI50 [43]: 21.9 µM (inactive)
GI50 [44]: 15.1 µM (inactive)
GI50 [56]: 17.4 µM (inactive)
GI50 [45]: 17.9 µM (inactive)
GI50 [57]: 18 µM (inactive)
GI50 [46]: 22.9 µM (inactive)
GI50 [47]: 16.4 µM (inactive)
GI50 [48]: 2.78 µM (inactive)
GI50 [49]: 29.2 µM (inactive)
GI50 [50]: 67.3 µM (inactive)
GI50 [51]: 13.4 µM (inactive)
GI50 [52]: 12.7 µM (inactive)
GI50 [53]: 46.3 µM (inactive)
GI50 [58]: 12.2 µM (inactive)
GI50 [54]: 19.8 µM (inactive)

C/N=C1\OC2=C3C(c4ccccc4)(O/C(=N/C)N(C)C3(c3ccccc3)OC2=O)N1C (configuration not stated)
GI50 [1]: > 100 µM (inactive)
GI50 [2]: > 100 µM (inactive)
GI50 [3]: > 100 µM (inactive)
GI50 [4]: > 100 µM (inactive)
GI50 [5]: > 100 µM (inactive)
GI50 [6]: > 100 µM (inactive)
GI50 [7]: > 100 µM (inactive)
GI50 [8]: > 100 µM (inactive)
GI50 [9]: > 100 µM (inactive)
GI50 [10]: > 100 µM (inactive)
GI50 [11]: > 100 µM (inactive)
GI50 [12]: > 100 µM (inactive)
GI50 [13]: > 100 µM
GI50 [14]: > 100 µM (inactive)
GI50 [15]: > 100 µM (inactive)
GI50 [17]: > 100 µM (inactive)
GI50 [18]: > 100 µM (inactive)
GI50 [19]: > 100 µM (inactive)
GI50 [20]: > 100 µM (inactive)
GI50 [21]: > 100 µM (inactive)
GI50 [55]: > 100 µM (inactive)
GI50 [23]: > 100 µM (inactive)
GI50 [24]: > 100 µM (inactive)
GI50 [26]: > 100 µM (inactive)
GI50 [27]: > 100 µM (inactive)
GI50 [29]: > 100 µM (inactive)
GI50 [30]: > 100 µM (inactive)
GI50 [31]: > 100 µM (inactive)
GI50 [32]: > 100 µM (inactive)
GI50 [33]: > 100 µM (inactive)
GI50 [34]: > 100 µM (inactive)
GI50 [35]: > 100 µM (inactive)
GI50 [36]: > 100 µM (inactive)
GI50 [37]: > 100 µM (inactive)
GI50 [38]: > 100 µM (inactive)
GI50 [41]: > 100 µM (inactive)
GI50 [42]: > 100 µM (inactive)
GI50 [43]: > 100 µM (inactive)
GI50 [44]: > 100 µM (inactive)
GI50 [56]: 23.7 µM (inactive)
GI50 [45]: > 100 µM (inactive)
GI50 [57]: > 100 µM (inactive)
GI50 [46]: > 100 µM (inactive)
GI50 [47]: > 100 µM (inactive)
GI50 [48]: 71.4 µM (inactive)
GI50 [49]: > 100 µM (inactive)
GI50 [50]: > 100 µM (inactive)
GI50 [59]: > 100 µM (inactive)
GI50 [51]: > 100 µM (inactive)
GI50 [52]: > 100 µM (inactive)
GI50 [53]: > 100 µM (inactive)
GI50 [58]: > 100 µM (inactive)
GI50 [54]: > 10 µM (inactive)
